According to patent US9745289B2, “Aldosterone synthase inhibitors” (Boehringer Ingelheim International GmbH, priority 2014, dated 2017):
pIC50: −log10 of the molar value.

Molecular target: cortisol synthase (CYP11B1) (Macaca fascicularis, UniProt A0A2K5ULY1)
Assay: Inhibition of Cortisol Synthesis
Assay type: biochemical, cynomolgus monkey
Conditions: cynomolgus adrenal gland mitochondria; 150 units of CYP11B1, 11-deoxycortisol as substrate, cortisol measured as product
Experimental: The aldosterone synthase and cortisol synthase inhibition assays employ cynomolgus adrenal gland mitochondria as the source of aldosterone synthase (CYP11B2) and cortisol synthase (CYP11B1). […] Activity of CYP11B2 and CYP11B1 in these preparations is defined as the amount of enzyme that generates 1 pmol of product in one hour under the conditions described.
Assays are performed in 96-well format in a final volume of 60 μL/well, containing 100 mM potassium phosphate, pH 7.4, 1% (v/v) DMSO, and additionally, 2 μM of corticosterone and 50 units of CYP11B2 activity. Reactions are started by the addition of NADPH to 1 mM and allowed to proceed for 90 minutes at 37° C. Reactions are terminated by the addition of 60 μL of MeCN containing an internal standard for mass spectrometry. One hundred microliters are then transferred to a glass filter plate and centrifuged at 570×g for 5 minutes and the filtrate is collected. Reaction product aldosterone is quantified by mass spectrometry. To determine the assay blank value (0% activity), NADPH is omitted from some reactions.
Dose dependent inhibition is quantified by the inclusion of compound at various concentrations. Maximum activity (100%) is defined by reactions containing NADPH, but without compound.
Assays are performed as for aldosterone synthase except for the use of 150 units of CYP11B1, 11-deoxycortisol as substrate and cortisol measured as product.

SMILES	pIC50
NC(=O)c1cccc2c1OCC(c1cncc(C3(O)CCOCC3)c1)O2 (single isomer, unassigned) [Cpd 1A, 2-[5-(4-Hydroxy-tetrahydro-pyran-4-yl)-pyridin-3-yl]-2,3-dihydro-benzo[1,4]dioxine-5-carboxylic acid amide]	< 4.00
NC(=O)c1cccc2c1OCC(c1cncc(C3(O)CCOCC3)c1)O2 (single isomer, unassigned) [Cpd 1B, 2-[5-(4-Hydroxy-tetrahydro-pyran-4-yl)-pyridin-3-yl]-2,3-dihydro-benzo[1,4]dioxine-5-carboxylic acid amide]	4.62
N#CC1(c2cncc(C3COc4c(cccc4C(N)=O)O3)c2)CC1 (single isomer, unassigned) [Cpd 2A, 2-[5-(1-Cyano-cyclopropyl)-pyridin-3-yl]-2,3-dihydro-benzo[1,4]dioxine-5-carboxylic acid amide]	7.22
N#CC1(c2cncc(C3COc4c(cccc4C(N)=O)O3)c2)CC1 (single isomer, unassigned) [Cpd 2B, 2-[5-(1-Cyano-cyclopropyl)-pyridin-3-yl]-2,3-dihydro-benzo[1,4]dioxine-5-carboxylic acid amide]	6.64
NC(=O)c1cccc2c1OCC(c1cncc(CN3CCCCS3(=O)=O)c1)O2 (single isomer, unassigned) [Cpd 3A, 2-[5-(1,1-Dioxo-1λ^6,-[1,2]thiazinan-2-ylmethyl)-pyridin-3-yl]-2,3-dihydro-benzo[1,4]dioxine-5-carboxylic acid amide]	< 4.52
NC(=O)c1cccc2c1OCC(c1cncc(CN3CCCCS3(=O)=O)c1)O2 (single isomer, unassigned) [Cpd 3B, 2-[5-(1,1-Dioxo-1λ^6,-[1,2]thiazinan-2-ylmethyl)-pyridin-3-yl]-2,3-dihydro-benzo[1,4]dioxine-5-carboxylic acid amide]	5.25
NC(=O)c1cccc2c1OCC(c1cccnc1)O2 (single isomer, unassigned) [Cpd 4A, 2-Pyridin-3-yl-2,3-dihydro-benzo[1,4]dioxine-5-carboxylic acid amide]	5.51
NC(=O)c1cccc2c1OCC(c1cccnc1)O2 (single isomer, unassigned) [Cpd 4B, 2-Pyridin-3-yl-2,3-dihydro-benzo[1,4]dioxine-5-carboxylic acid amide]	5.60
NC(=O)c1cccc2c1OCC(c1cncc(CN3CCCC3=O)c1)O2 (single isomer, unassigned) [Cpd 5A, 2-[5-(2-Oxo-pyrrolidin-1-ylmethyl)-pyridin-3-yl]-2,3-dihydro-benzo[1,4]dioxine-5-carboxylic acid amide]	< 4.52
NC(=O)c1cccc2c1OCC(c1cncc(CN3CCCC3=O)c1)O2 (single isomer, unassigned) [Cpd 5B, 2-[5-(2-Oxo-pyrrolidin-1-ylmethyl)-pyridin-3-yl]-2,3-dihydro-benzo[1,4]dioxine-5-carboxylic acid amide]	4.66
CN1C(=O)CCC1c1cncc(C2COc3c(cccc3C(N)=O)O2)c1 (single isomer, unassigned) [Cpd 6AA, 2-[5-(-1-Methyl-5-oxo-pyrrolidin-2-yl)-pyridin-3-yl]-2,3-dihydro-benzo[1,4]dioxine-5-carboxylic acid amide]	5.66
CN1C(=O)CCC1c1cncc(C2COc3c(cccc3C(N)=O)O2)c1 (single isomer, unassigned) [Cpd 6AB, 2-[5-(-1-Methyl-5-oxo-pyrrolidin-2-yl)-pyridin-3-yl]-2,3-dihydro-benzo[1,4]dioxine-5-carboxylic acid amide]	5.00
CN1C(=O)CCC1c1cncc(C2COc3c(cccc3C(N)=O)O2)c1 (single isomer, unassigned) [Cpd 6BA, 2-[5-(-1-Methyl-5-oxo-pyrrolidin-2-yl)-pyridin-3-yl]-2,3-dihydro-benzo[1,4]dioxine-5-carboxylic acid amide]	< 4.52
CN1C(=O)CCC1c1cncc(C2COc3c(cccc3C(N)=O)O2)c1 (single isomer, unassigned) [Cpd 6BB, 2-[5-(-1-Methyl-5-oxo-pyrrolidin-2-yl)-pyridin-3-yl]-2,3-dihydro-benzo[1,4]dioxine-5-carboxylic acid amide]	< 4.52
CC(=O)N1CCC[C@@H](Oc2cncc(C3COc4c(cccc4C(N)=O)O3)c2)C1 (single isomer, unassigned) [Cpd 7A]	< 4.52
CC(=O)N1CCC[C@@H](Oc2cncc(C3COc4c(cccc4C(N)=O)O3)c2)C1 (single isomer, unassigned) [Cpd 7B]	4.72
CS(=O)(=O)Cc1cncc(C2COc3c(cccc3C(N)=O)O2)c1 (single isomer, unassigned) [Cpd 8A, 2-(5-Methanesulfonylmethyl-pyridin-3-yl)-2,3-dihydro-benzo[1,4]dioxine-5-carboxylic acid amide]	< 4.52
CS(=O)(=O)Cc1cncc(C2COc3c(cccc3C(N)=O)O2)c1 (single isomer, unassigned) [Cpd 8B, 2-(5-Methanesulfonylmethyl-pyridin-3-yl)-2,3-dihydro-benzo[1,4]dioxine-5-carboxylic acid amide]	4.89
NC(=O)c1cccc2c1OCC(c1cncc(C(F)(F)F)c1)O2 (single isomer, unassigned) [Cpd 9A, 2-(5-Trifluoromethyl-pyridin-3-yl)-2,3-dihydro-benzo[1,4]dioxine-5-carboxylic acid amide]	5.28
NC(=O)c1cccc2c1OCC(c1cncc(C(F)(F)F)c1)O2 (single isomer, unassigned) [Cpd 9B, 2-(5-Trifluoromethyl-pyridin-3-yl)-2,3-dihydro-benzo[1,4]dioxine-5-carboxylic acid amide]	5.66
NC(=O)c1cccc2c1OCC(c1cncc(C3CCOCC3)c1)O2 (single isomer, unassigned) [Cpd 10A, 2-[5-(Tetrahydro-pyran-4-yl)-pyridin-3-yl]-2,3-dihydro-benzo[1,4]dioxine-5-carboxylic acid amide]	5.47
NC(=O)c1cccc2c1OCC(c1cncc(C3CCOCC3)c1)O2 (single isomer, unassigned) [Cpd 10B, 2-[5-(Tetrahydro-pyran-4-yl)-pyridin-3-yl]-2,3-dihydro-benzo[1,4]dioxine-5-carboxylic acid amide]	6.64

The remaining lines, values ahead:

pIC50	SMILES
4.62	NC(=O)c1cccc2c1OCC(c1cncc(C3(O)CCCCC3)c1)O2 (single isomer, unassigned) [Cpd 11A, 2-[5-(1-Hydroxy-cyclohexyl)-pyridin-3-yl]-2,3-dihydro-benzo[1,4]dioxine-5-carboxylic acid amide]
5.36	NC(=O)c1cccc2c1OCC(c1cncc(C3(O)CCCCC3)c1)O2 (single isomer, unassigned) [Cpd 11B, 2-[5-(1-Hydroxy-cyclohexyl)-pyridin-3-yl]-2,3-dihydro-benzo[1,4]dioxine-5-carboxylic acid amide]
4.74	CC(=O)N1CCC(Oc2cncc(C3COc4c(cccc4C(N)=O)O3)c2)CC1 (single isomer, unassigned) [Cpd 12A, 2-[5-(1-Acetyl-piperidin-4-yloxy)-pyridin-3-yl]-2,3-dihydro-benzo[1,4]dioxine-5-carboxylic acid amide]
5.70	CC(=O)N1CCC(Oc2cncc(C3COc4c(cccc4C(N)=O)O3)c2)CC1 (single isomer, unassigned) [Cpd 12B, 2-[5-(1-Acetyl-piperidin-4-yloxy)-pyridin-3-yl]-2,3-dihydro-benzo[1,4]dioxine-5-carboxylic acid amide]
< 4.00	NC(=O)c1cccc2c1OCC(c1cncc(CC(=O)N3CCOCC3)c1)O2 (single isomer, unassigned) [Cpd 13A, 2-[5-(2-Morpholin-4-yl-2-oxo-ethyl)-pyridin-3-yl]-2,3-dihydro-benzo[1,4]dioxine-5-carboxylic acid amide]
4.18	NC(=O)c1cccc2c1OCC(c1cncc(CC(=O)N3CCOCC3)c1)O2 (single isomer, unassigned) [Cpd 13B, 2-[5-(2-Morpholin-4-yl-2-oxo-ethyl)-pyridin-3-yl]-2,3-dihydro-benzo[1,4]dioxine-5-carboxylic acid amide]
4.92	NC(=O)c1cccc2c1OCC(c1cncc(CNC(=O)C3CC3)c1)O2 (single isomer, unassigned) [Cpd 14A, 2-{5-[(Cyclopropanecarbonyl-amino)-methyl]-pyridin-3-yl}-2,3-dihydro-benzo[1,4]dioxine-5-carboxylic acid amide.]
< 4.52	NC(=O)c1cccc2c1OCC(c1cncc(CNC(=O)C3CC3)c1)O2 (single isomer, unassigned) [Cpd 14B, 2-{5-[(Cyclopropanecarbonyl-amino)-methyl]-pyridin-3-yl}-2,3-dihydro-benzo[1,4]dioxine-5-carboxylic acid amide.]
4.82	NC(=O)c1cccc2c1OCC(c1cncc(CN3CCOCC3=O)c1)O2 (single isomer, unassigned) [Cpd 15A, 2-[5-(3-Oxo-morpholin-4-ylmethyl)-pyridin-3-yl]-2,3-dihydro-benzo[1,4]dioxine-5-carboxylic acid amide]
< 4.52	NC(=O)c1cccc2c1OCC(c1cncc(CN3CCOCC3=O)c1)O2 (single isomer, unassigned) [Cpd 15B, 2-[5-(3-Oxo-morpholin-4-ylmethyl)-pyridin-3-yl]-2,3-dihydro-benzo[1,4]dioxine-5-carboxylic acid amide]
